According to the NIST ThermoML archive (doi:10.1021/acs.jced.7b00354):
Values joined by “and” are separate entries in the source; they are usually repeats but may differ in a detail not shown here. Equal values may be shown once.

Conditions: Transpiration method

O=C1C=CC(=O)C=C1 [1,4-benzoquinone]
Crystal
Conditions	vapor or sublimation pressure
290.2 K	0.01002 kPa
293.4 K	0.01343 kPa
297.5 K	0.02081 kPa
298.5 K	0.02319 kPa
301.4 K	0.03014 kPa
303.1 K	0.03408 kPa
307.3 K	0.05078 kPa
308.3 K	0.0527 kPa
310.2 K	0.06526 kPa
313.3 K	0.07951 kPa
314.1 K	0.08416 kPa
317.3 K	0.1098 kPa
320.1 K	0.1364 kPa
323 K	0.1783 kPa
323.3 K	0.1841 kPa
324.2 K	0.1861 kPa
327.2 K	0.2502 kPa and 0.2417 kPa
328.1 K	0.2659 kPa
330.3 K	0.3065 kPa
333.2 K	0.3846 kPa and 0.3832 kPa
334.2 K	0.4116 kPa
338.1 K	0.5504 kPa
338.2 K	0.5497 kPa and 0.5525 kPa

CC1=CC(=O)C=CC1=O [2,5-cyclohexadiene-1,4-dione, 2-methyl]
Conditions	vapor or sublimation pressure
282.2 K, Crystal	0.00318 kPa
285.6 K, Crystal	0.00523 kPa and 0.0051 kPa
286.8 K, Crystal	0.00566 kPa
288.5 K, Crystal	0.00664 kPa and 0.00678 kPa
290.8 K, Crystal	0.0091 kPa
295.2 K, Crystal	0.01426 kPa
300.4 K, Crystal	0.02498 kPa
305.3 K, Crystal	0.04235 kPa
310.2 K, Crystal	0.06335 kPa
312.9 K, Crystal	0.08525 kPa
315.2 K, Crystal	0.1054 kPa
317.9 K, Crystal	0.1305 kPa
320.1 K, Crystal	0.1774 kPa
322 K, Crystal	0.2004 kPa
325.1 K, Crystal	0.2769 kPa
327.8 K, Crystal	0.3444 kPa
330.1 K, Crystal	0.4336 kPa
331.6 K, Crystal	0.4466 kPa
332.1 K, Crystal	0.5012 kPa
335.2 K, Crystal	0.6342 kPa
336.7 K, Crystal	0.7271 kPa
343.2 K, Liquid	1.019 kPa
347.2 K, Liquid	1.264 kPa
351.2 K, Liquid	1.552 kPa
355.1 K, Liquid	1.947 kPa
356.8 K, Liquid	2.104 kPa
359.1 K, Liquid	2.373 kPa
363.1 K, Liquid	2.94 kPa
